Where “and” joins values, the source holds several entries; their conditions need not be identical. Identical values can stand only once. Like-named read-outs stand apart in the source and are kept apart here.
Key:
[1] = tested on: L1-RT; conditions: human tumor cell lines; cited from earlier work
[2] = tested on: metastatic hormone-refractory prostate cancer; assay: FAVE study: PSA progression at 3 months under Efavirenz; assay type: in vivo, human; conditions: 600 mg/day; for PSA progression (share of subjects): 3 months
Protocol: For the exploratory analysis, following the latest recommendations of the Prostate Cancer Clinical Trials Working Group (Scher, 2008), PSA progression was defined as an increase of more than 25% over the baseline and an increase in the concentrations of PSA of at least 2 ng/ml. The clinical symptoms, the number of new bone metastasis and the global response to treatment (evaluated by the RECIST criteria) were also recorded. After three months, the global response and the overall survival were evaluated in a follow up study. Patients received 600 mg of Efavirenz per day and, during Efavirenz treatment, hormone therapy was maintained. […] However, it is difficult to predict precisely the efficacious dose in humans based on preclinical data. For this reason, the goal of the FAVE study was twofold: 1. […] Explore the relationship between the dose of the compound and clinical efficacy. In order to establish the minimal efficacious dose that could be effective for the treatment of prostate cancer the inventor used a correlational approach in which plasma concentrations of Efavirenz were related to treatment efficacy measured at the three month time point. Sixty-one patients were included in the study and fifty-three patients had no violation of the eligibility criteria and received Efavirenz at least once (general population). The assessment of Efavirenz plasma concentrations was an optional exploratory objective to which the patients had to expressly consent. Plasma Efavirenz concentrations at the three month time point were available for 41 patients that were used for the exploratory analysis.

[3] = ESCALE study: Efavirenz plasma concentration depending on daily dose (UPLC-MS/MS); assay type: in vivo, human; conditions: for mean plasma concentration of Efavirenz: three patients
Text: The […] clinical study is a single arm, single center (Bergonie Institute), and dose escalation phase I study. Objectives of this study are to assess the safety, tolerability, and recommended dose of Efavirenz administered orally, by continuous once-daily administration in patients with solid tumors (no pancreatic cancer) and Non-Hodgkin Lymphoma (NHL) who have failed chemotherapy treatment. The scheme of the study is a dose escalation evaluated by continual reassessment method likelihood approach (O'Quickley, 1996). […] The maximal subject number assessable is 30 patients. Blood samples for the evaluation of Efavirenz plasma concentrations were taken at 14 days, 28 days after the start of Efavirenz treatment. For Efavirenz plasma concentration determination, 10 ml of blood were collected using sodium or lithium heparinate tubes. After each blood collection, the tubes of blood were centrifuged for 5 minutes at 5000 g. Plasma was collected in polypropylene tubes. The plasma tubes of each subject were packed and stored in appropriately labelled plastic frost-resistant bags and stored at -20° C. until analysis. Samples were sent to a pharmacokinetic analysis laboratory for Efavirenz concentration analysis that was performed using a validated mass-spectrometry coupled to liquid chromatography (UPLC-MS/MS) method. […] The sample was vortex-mixed for 30 sec, and then 5 mL of diethyl ether was added. After 15 min under agitation, the organic and aqueous phases were separated by centrifugation at 3000 rpm for 10 min. […] The residue was re-dissolved in 150 μL of methanol. The UPLC-MS/MS unit consisted of Waters ACQUITY UPLC® instrument coupled with an Acquity TQD® detector. Separations were performed at 40° C. on an Acquity UPLC® BEH C18 column (50*2.1 mm) at a flow rate of 0.3 mL/min. Gradient elution was performed over 2.3 minutes using a combination of acetonitrile and ammonium formate buffer (4 mM) as mobile phase. […] Calibration curves were obtained by analysis of standard solutions prepared in plasma in the range 100-10000 ng/mL and limit of quantification (LOQ) was 2.5 ng/mL.

[4] = FAVE study: Efavirenz plasma concentration (UPLC-MS/MS); assay type: in vivo, human; conditions: 600 mg/day
Text: Sixty-one patients were included in the study and fifty-three patients had no violation of the eligibility criteria and received Efavirenz at least once (general population). The assessment of Efavirenz plasma concentrations was an optional exploratory objective to which the patients had to expressly consent. Plasma Efavirenz concentrations at the three month time point were available for 41 patients that were used for the exploratory analysis. Blood samples for the evaluation of Efavirenz plasma concentrations were taken at three months after the start of Efavirenz treatment. For Efavirenz plasma concentration determination, 10 ml of blood were collected using sodium or lithium heparinate tubes. After each blood collection, the tubes of blood were centrifuged for 5 minutes at 5000 g. Plasma was collected in polypropylene tubes. The plasma tubes of each subject were packed and stored in appropriately labelled plastic frost-resistant bags and stored at −20° C. until analysis. Samples were sent to a pharmacokinetic analysis laboratory for Efavirenz concentration analysis that was performed using a validated mass-spectrometry coupled to liquid chromatography (UPLC-MS/MS) method. […] Calibration curves were obtained by analysis of standard solutions prepared in plasma in the range 100-10000 ng/mL and limit of quantification (LOQ) was 2.5 ng/mL.

[5] = cited from earlier work
[6] = tested on: hormone refractory prostate cancer; assay: FAVE follow up study: progression free survival (RECIST) and overall survival, ITT analysis; assay type: in vivo, human
Protocol: For the exploratory analysis, following the latest recommendations of the Prostate Cancer Clinical Trials Working Group (Scher, 2008), PSA progression was defined as an increase of more than 25% over the baseline and an increase in the concentrations of PSA of at least 2 ng/ml. The clinical symptoms, the number of new bone metastasis and the global response to treatment (evaluated by the RECIST criteria) were also recorded. After three months, the global response and the overall survival were evaluated in a follow up study. This approach was followed by an interventional approach aimed to establish a causal relationship between dose and efficacy of the treatment. In this case after three months of treatment at the 600 mg/day dose, the doses of Efavirenz were progressively raised to reach 1.2 g/day. Differences in disease progression as a function of plasma Efavirenz concentrations were confirmed in the follow up study. […] Log-rank Mantel-Cox's test, the <1500 and 1500-3000 groups were cumulated for statistical analysis). […] These thirteen patients were used to constitute the dose escalation group.

[7] = Pharmacokinetic study in rats (Balani et al 1999); assay type: in vivo; conditions: rat, intravenous injection of 5 mg/kg, converted from μM
[8] = rat, intravenous injection of 5 mg/kg; cited from earlier work

SMILES | reverse transcriptase activity of L1-RT [1] | PSA progression (share of subjects) ([2]; plasma Efavirenz 1500-3000 ng/ml group, N=22) [%] | PSA progression (share of subjects) ([2]; plasma Efavirenz <1500 ng/ml group, N=12) [%] | non-progressions for PSA levels at 3 months (share of patients) ([2]; all treated patients, N=53) [%] | patients in whom the disease continued to progress (PSA) at 3 months ([2]; all treated patients, N=53) [%] | mean plasma concentration of Efavirenz ([3]; 1800 mg/day) | mean plasma concentration of Efavirenz ([3]; 2200 mg/day) | patients with Efavirenz plasma concentration of at least 3000 ng/ml ([3]; daily dose between 1800 and 2200 mg) [%] | patients with Efavirenz plasma concentration of at least 1500 ng/ml ([4]; 3 months, 41 patients) [%] | concentration at 3 months ([4]; human, plasma, cancer patients) [ng/mL] | subjects with plasma concentrations above 1500 ng/ml ([5]; 600 mg/day (Marzolini, 2001)) | Efavirenz plasma concentration reached ([5]; 600 mg/day, patients with two loss or decrease of function CYP2B6 alleles (Rotger, 2007)) | median progression free survival ([6]; dose escalation group: up to 1200 mg/day, originally <3000 ng/ml, 13 patients) [months] | median progression free survival ([6]; low (<1500 ng/ml) and intermediate (1500-3000 ng/ml) groups cumulated) [months] | median progression free survival ([6]; plasma Efavirenz 1500-3000 ng/ml group) [months] | median progression free survival ([6]; plasma Efavirenz <1500 ng/ml group) [months] | median progression free survival ([6]; plasma Efavirenz <3000 ng/ml, no dose escalation (600 mg/day)) [months] | median progression free survival ([6]; plasma Efavirenz >3000 ng/ml group) [months] | maximal plasma concentration [7] [ng/mL] | maximal plasma concentration [8] [µM]
Cc1ccnc2c1NC(=O)c1cccnc1N2C1CC1 [Nevirapine] | able to inhibit |  |  |  |  |  |  |  |  |  |  |  |  |  |  |  |  |  |  | 
O=C1Nc2ccc(Cl)cc2[C@@](C#CC2CC2)(C(F)(F)F)O1 [Efavirenz] |  | 81.8 | 83.3 | 28 | 72 | 3712 ng/mL and > 3000 ng/mL and > 3500 ng/mL | 7364 ng/mL and > 6500 ng/mL | 84 | 70 | 2140 | 70-80% | at least 3000 ng/ml | 10 | 3 | 3 | 3 | 3 | 17 | 1578 | 5

From patent US9468646B2, “Increased dosage of efavirenz for the treatment of cancer” (Alienor Farma, priority 2013, dated 2016)
